This test relates to 292921-168-R-J2-PDC complex spheroid viability. Description: Anticancer human tumor 292921-168-R-J2-PDC patient-derived pancreatic carcinoma cell line growth inhibition. The note with it: for viability, T/C: stronger effect = lower value. In outline:
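Drug combinations with the LSD1 inhibitor iadademstat tested on tumor cells co-cultured as spheroids with endothelial cells and mesenchymal stem cells. Concentrations descended in half-log increments from clinical Cmax or 10 microM.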

The text below walks through data of PubChem BioAssay AID1918934 (Molecular Pharmacology Branch, DTP, NCI, 2023).

The structures appear in SMILES notation. Where “and” joins values, the source holds several entries; their conditions need not be identical. Equal entries are not always repeated. Bounds are passed on as bounds.

As usually defined, the IC50 is the concentration at which inhibition is half-maximal. In general, viability, T/C refers to the result in the treated group divided by that in the control group, in per cent.
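Note: seven day compound exposure before luminescent viability read.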
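Throughout, for viability, T/C: 100% = DMSO vehicle control wells.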

On to `O=C(C=Cn1cnc(-c2cc(C(F)(F)F)cc(C(F)(F)F)c2)n1)NNc1cnccn1` + NC1CC1c1ccc(-c2cccc(O)c2)cc1, for which the concentration for half-maximal inhibition (IC50) by setting is: (curve of first compound, second compound 0.1 µM) 3.26 nM; (curve of first compound, second compound 0.316 µM) 3.41 nM; (curve of first compound, second compound 1 µM) under 3.16 nM; (curve of first compound, second compound 3.16 µM) 4.57 nM; (curve of first compound, second compound 10 µM) 3.76 nM. Moreover, the viability, T/C was 48.3% (second compound 0.1 µM, first compound 0.00316 µM); 49.7% (second compound 0.1 µM, first compound 0.01 µM); 26.2% (second compound 0.1 µM, first compound 0.0316 µM); 12.7% (second compound 0.1 µM, first compound 0.1 µM); 7.08% (second compound 0.1 µM, first compound 0.316 µM); 6.49% (second compound 0.1 µM, first compound 1 µM). Besides, the viability, T/C runs as follows: (second compound 0.316 µM, first compound 0.00316 µM) 50%; (second compound 0.316 µM, first compound 0.01 µM) 45%; (second compound 0.316 µM, first compound 0.0316 µM) 22.3%; (second compound 0.316 µM, first compound 0.1 µM) 11.1%; (second compound 0.316 µM, first compound 0.316 µM) 7.37%; (second compound 0.316 µM, first compound 1 µM) 6.26%. Moreover, the viability, T/C runs as follows: (second compound 1 µM, first compound 0.00316 µM) 47.8%; (second compound 1 µM, first compound 0.01 µM) 42.7%; (second compound 1 µM, first compound 0.0316 µM) 23%; (second compound 1 µM, first compound 0.1 µM) 11.8%; (second compound 1 µM, first compound 0.316 µM) 6.36%; (second compound 1 µM, first compound 1 µM) 6.66%. The viability, T/C was 51.8% (second compound 3.16 µM, first compound 0.00316 µM); 46% (second compound 3.16 µM, first compound 0.01 µM); 24% (second compound 3.16 µM, first compound 0.0316 µM); 14.4% (second compound 3.16 µM, first compound 0.1 µM); 7.81% (second compound 3.16 µM, first compound 0.316 µM); 7.38% (second compound 3.16 µM, first compound 1 µM). Also, the viability, T/C runs as follows: (second compound 10 µM, first compound 0.00316 µM) 50.7%; (second compound 10 µM, first compound 0.01 µM) 46.3%; (second compound 10 µM, first compound 0.0316 µM) 33.5%; (second compound 10 µM, first compound 0.1 µM) 17.6%; (second compound 10 µM, first compound 0.316 µM) 9.43%; (second compound 10 µM, first compound 1 µM) 8.53%.

Turning to `O=C(C=Cc1cccc(S(=O)(=O)Nc2ccccc2)c1)NO`, the viability, T/C reads like this: (compound 0.00949 µM) 47.6% and 52.8%; (compound 0.03 µM) 41% and 44.1%; (compound 0.0949 µM) 28.8% and 32.3%; (compound 0.3 µM) 18.1% and 25.8%; (compound 0.949 µM) 0.52% and 1.26%; (compound 3 µM) 0.15%. In addition, the 50% inhibitory concentration (IC50) (curve of compound) is < 9.49 nM and 12.8 nM.
